Data published in patent US20080213213A1, “Method For the Treatment of Myelodysplastic Syndromes Using (+)-2-[1-(3-Ethoxy-4-Methoxyphenyl)-2-Methylsulfonylethyl]-4-Acetylaminoisoindoline-1,3-Dione” (priority 2004, published 2008).

Legend:
AML cells = experiment: Mitogenic response to VEGF in AML cells; type: cell-based
Text: (§1) The pharmacological effects of 3-(3,4-dimethoxy-phenyl)-3-(1-oxo-1,3-dihydro-isoindol-2-yl)-propionamide derive from its action as an inhibitor of cellular response to receptor-initiated trophic signals (e.g., IGF-1, VEGF, cyclooxygenase-2), and other activities.

[1] = tested on: production of various cytokines; experiment: In vitro studies of pharmacological activity profile and cytokine production; type: cell-based, human
Description: The pharmacological properties of 3-(3,4-dimethoxy-phenyl)-3-(1-oxo-1,3-dihydro-isoindol-2-yl)-propionamide, including activity comparisons with thalidomide, are characterized in in vitro studies. Studies examine the effects of 3-(3,4-dimethoxy-phenyl)-3-(1-oxo-1,3-dihydro-isoindol-2-yl)-propionamide on the production of various cytokines. In addition, a safety pharmacology study of -(3,4-dimethoxy-phenyl)-3-(1-oxo-1,3-dihydro-isoindol-2-yl)-propionamide is conducted in dogs and the effects of the compound on ECG parameters are examined further as part of three repeat-dose toxicity studies in primates.
Inhibition of TNF-α production following LPS-stimulation of human PBMC and human whole blood by 3-(3,4-dimethoxy-phenyl)-3-(1-oxo-1,3-dihydro-isoindol-2-yl)-propionamide is investigated in vitro (Muller et al., Bioorg. Med. Chem. Lett. 9:1625-1630, 1999). The IC50's of 3-(3,4-dimethoxy-phenyl)-3-(1-oxo-1,3-dihydro-isoindol-2-yl)-propionamide for inhibiting production of TNF-α following LPS-stimulation of PBMC and human whole blood is measured.
as §1

angiogenic response = experiment: In vitro pharmacology: angiogenic response; type: cell-based
Text: as §1

[2] = tested on: adhesion molecules and apoptosis inhibitory proteins (e.g., cFLIP, cIAP); experiment: In vitro pharmacology: adhesion molecules and apoptosis inhibitory proteins; type: cell-based
Text: as §1

[3] = tested on: MDS bone marrow progenitor; experiment: MDS vs normal bone marrow progenitor formation in pre-clinical models; type: cell-based
Text: as §1

[4] = tested on: death-receptor initiated programmed cell death; experiment: In vitro pharmacology: death-receptor initiated programmed cell death; type: cell-based
Text: as §1

MDS patients = details: cited from earlier work

## COc1ccc(C(CC(N)=O)N2Cc3ccccc3C2=O)cc1OC (stereo not drawn) [3-(3,4-dimethoxy-phenyl)-3-(1-oxo-1,3-dihydro-isoindol-2-yl)-propionamide]
AML cells
  mitogenic response to VEGF: abrogates mitogenic response to VEGF
AML cells; VEGF
  ligand-induced Akt-phosphorylation: extinguishing ligant-induced Akt-phosphorylation
[1]
  generation of inflammatory cytokines: suppresses the generation of inflammatory cytokines
Angiogenic response
  angiogenic response: suppresses angiogenic response
[2]
  adhesion molecules and apoptosis inhibitory proteins (e.g., cFLIP, cIAP): down-regulates adhesion molecules and apoptosis inhibitory proteins
[3]
  MDS vs normal bone marrow progenitor formation: selectively suppresses MDS vs normal bone marrow progenitor formation
[4]
  sensitivity to death-receptor initiated programmed cell death: promotes sensitivity to death-receptor initiated programmed cell death

## recombinant human EPO: erythropoietin (EPO), hematopoietic growth factor
MDS patients
  patients with sustained improvement in hemoglobin or decrease in transfusion requirement: less than 25%

## recombinant human GM-CSF: granulocyte macrophage colony stimulating factor (GM-CSF)
MDS patients
  granulocytopoiesis in treated patients: can restore granulocytopoiesis
  improvement in hemoglobin or platelet counts: little or no improvement

B1: G-CSF: granulocyte colony stimulating factor (G-CSF) (protein, UniProt P09919 31-207, looked up)
Granulocyte …: TPLGPASSLPQSFLLKCLEQVRKIQGDGAALQEKLVSECATYKLCHPEELVLLGHSLGIPWAPLSSCPSQALQLAGCLSQLHSGLFLYQGLLQALEGISPELGPTLDTLQLDVADFATTIWQQMEELGMAPALQPTQGAMPAFASAFQRRAGGVLVASHLQSFLEVSYRVLRHLAQP
MDS patients
  granulocytopoiesis in treated patients: can restore granulocytopoiesis
  improvement in hemoglobin or platelet counts: little or no improvement
